Results taken from ChEMBL document CHEMBL3637782, “GSK Tres Cantos Follow-up TB Screening Data” (2016).
In brackets after ≈: the same amount, converted by molar mass.

test system: Mycobacterium tuberculosis H37Rv; experiment: GSK_TB: Minimum inhibitory concentration against isoniazid and rifampicin resistant clinical isolates of Mycobacterium tuberculosis; type: functional; settings: ATCC25618

How did the MIC turn out when CNc1snc(C)c1C(=O)NCCOc1ccc(OC)cc1 was run?
Its MIC is 0.9 µM (≈ 0.289 µg/mL).

Which MIC does the source give for COc1ccc(-c2nnc3sc(Cc4csc(C)n4)nn23)cc1 here?
The MIC was 1.3 µM (≈ 0.446 µg/mL).

Nc1ccc(C(O)CNCCc2ccccc2)cc1O (centres undefined) was tested. Which MIC did it give?
The MIC was 1.3 µM (≈ 0.354 µg/mL).

With O=C(Nc1nc2c(s1)CCCc1cccnc1-2)c1ccccc1C(F)(F)F as the molecule, how does the MIC read?
Its MIC is 1.3 µM (≈ 0.506 µg/mL).

How did the MIC turn out when NC(=O)c1ccc(CN(C2CC2)S(=O)(=O)c2ccccc2F)cc1 was run?
The MIC was 5 µM (≈ 1.74 µg/mL).

CN(Cc1ccc(Cl)cc1)C(=O)CCc1nc2ccccc2oc1=O was tested. Which MIC did it give?
The MIC was 1.3 µM (≈ 0.464 µg/mL).

Which MIC does the source give for Clc1nnc(N2CCCC2)c2ccccc12 here?
The MIC was 0.6 µM (≈ 0.14 µg/mL).

CCOCn1ccc(NS(=O)(=O)c2ccc(N)cc2)nc1=O was tested. Which MIC did it give?
The MIC was 20 µM (≈ 6.49 µg/mL).

For COc1ccc(CCNC(=O)C2(n3cnnn3)CCCCC2)cc1, which MIC is on record?
The MIC was 2.5 µM (≈ 0.824 µg/mL).
